Data from patent US6165441A, “Method of diagnosis and photodynamic therapy of tumours” (Nycomed Amersham Sorin SRL, priority 1995, dated 2000).

Columns and labels:
MS-2 fibrosarcoma = assay: Tumour accumulation and tumour/muscle radioactivity ratio; format: in vivo, Balb/c mice; conditions: for Kinetics of tumour uptake and clearance, ^131 I--ZnPc versus ZnPc: mouse, in vivo; for Recovery from TUMOUR: average of three mice ± s.d.
Experimental: (§1) Experimental tests were carried out in Balb/c mice affected by a MS-2 fibrosarcoma. This tumour model had been previously used for extensive PDT studies with unlabelled ZnPc.
(§2) For tumour implantation 2×10^5 cells in 0.2 ml of sterile physiological solution were intramuscularly injected into the right hind leg of female Balb/c mice having a body wt. of 20-22 g. All the experiments were started on the eighth day after tumour implantation, when the external diameter was ca. 0.8 cm and no detectable spontaneous tumour necrosis had generally occurred. When necessary, mice were anesthetized by i.p. injection of Ketalar (150 mg/kg).
(§3) Balb/c mice bearing the MS-2 fibrosarcoma were injected in the tail vein with ^131 I--ZnPc at does between 0.024 and 0.096 MBq/g. At predetermined times up to 24 hours after injection, the whole body of the mice was scanned with a Gamma Camera General Electric Stargem in order to ensure the radioactivity levels at different anatomical sites. Then, the mice were sacrificed by prolonged exposure to ether vapours; the blood, tumour and selected normal tissues (muscle, skin, lung, liver, spleen, kidney, brain) were rapidly taken. The blood was centrifuged to remove the erythrocytes and the radioactivity in the plasma (100 μl) was analyzed. Moreover, tissues were washed with physiological solution, weighed, introduced into RIA test tubes and centrifuged for 10 minutes and 2000 g. The radioactivity was collected for 1 minute by a gamma counter (Packard Selektronik Design). A different group of mice was injected as above described, sacrificed at 3 hours, 15 hours, 24 hours, 48 hours and 96 hours after injection (three mice at each time) and the radioactivity in plasma and tissues homogenates was determined.
FIG. 2 is an histogram showing the ratio between the tumour/muscle radioactivity of ^131 I--ZnPc at different times after injection of 0.096 MBq/g ^131 I--ZnPc in DPPC liposomes; averaged ratios for three independently analyzed mice±s.d..
FIG. 3 is an histogram showing the ratio between the tumour/muscle radioactivity of ^131 I--ZnPc at different concentrations at 24 hours after injection of ^131 I--ZnPc in DPPC liposomes; averaged ratio for three independently analyzed mice±s.d..

tumour = conditions: cited from earlier work
[1] = Biodistribution of ^131 I radioactivity in excised tissues after i.v. injection (pharmacokinetic studies, gamma counter); format: in vivo, Balb/c mice; conditions: for Recovery from BRAIN / Recovery from KIDNEY / Recovery from LIVER / Recovery from LUNG / Recovery from MUSCLE / Recovery from SPLEEN: 0.096 MBq/g in DPPC liposomes, average of three mice ± s.d.
Experimental: as §1, §2
^131 I--Zn(II)-phthalocyanine was incorporated into small unilamellar vesicles of DPPC following the procedure described by Valduga et al., J.Inorg.Biochem. (1987), 25-59.
as §3

[2] = In vivo whole body Gamma Camera scanning of radioactivity distribution; parameters: species or system Balb/c mice
Experimental: as §3

[3] = Clearance of ^131 I--ZnPc from serum; format: in vivo, Balb/c mice
Experimental: as §3

[4] = i.v. 0.096 MBq/g in DPPC liposomes

## [Zn+2].c1ccc2c(c1)-c1nc-2nc2[n-]c(nc3nc([n-]c4nc(n1)-c1ccccc1-4)-c1ccccc1-3)c1ccccc21 [ZnPc, Zn(II)-phthalocyanine]
MS-2 fibrosarcoma
  Kinetics of tumour uptake and clearance, ^131 I--ZnPc versus ZnPc: quite similar
tumour; in vivo
  Selectivity of tumour accumulation: enhanced selectivity of tumour accumulation
tumour; liposome-incorporated, doses as low as
  Lowest phototherapeutically active dose: 0.15 mg/kg body wt.

## ^131 I--Zn(II)-phthalocyanine [^131 I--ZnPc]
[1]; 3 h
  Recovery from BRAIN: 11.7 ± 0.1 CPM/mg of tissue
  Recovery from KIDNEY: 156.9 ± 9.7 CPM/mg of tissue
  Recovery from LIVER: 984.2 ± 15.7 CPM/mg of tissue
  Recovery from LUNG: 168.3 ± 5.6 CPM/mg of tissue
  Recovery from MUSCLE: 41.1 ± 3.6 CPM/mg of tissue
  Recovery from SPLEEN: 600.9 ± 8.1 CPM/mg of tissue
[1]; 15 h
  Recovery from BRAIN: 5.2 ± 1.5 CPM/mg of tissue
  Recovery from KIDNEY: 84.4 ± 8.4 CPM/mg of tissue
  Recovery from LIVER: 871.1 ± 146.8 CPM/mg of tissue
  Recovery from LUNG: 76.2 ± 31.4 CPM/mg of tissue
  Recovery from MUSCLE: 22.4 ± 9.3 CPM/mg of tissue
  Recovery from SPLEEN: 503.7 ± 46.8 CPM/mg of tissue
[1]; 24 h
  Recovery from BRAIN: 4.3 ± 0.6 CPM/mg of tissue
  Recovery from KIDNEY: 77.3 ± 11.2 CPM/mg of tissue
  Recovery from LIVER: 1043.7 ± 72.5 CPM/mg of tissue
  Recovery from LUNG: 83.3 ± 12.4 CPM/mg of tissue
  Recovery from MUSCLE: 23.7 ± 2.0 CPM/mg of tissue
  Recovery from SPLEEN: 635.1 ± 65.8 CPM/mg of tissue
[1]; 48 h
  Recovery from BRAIN: 3.4 CPM/mg of tissue
  Recovery from KIDNEY: 59.4 CPM/mg of tissue
  Recovery from LIVER: 849.1 ± 90.3 CPM/mg of tissue
  Recovery from LUNG: 73.4 CPM/mg of tissue
  Recovery from MUSCLE: 22.3 CPM/mg of tissue
  Recovery from SPLEEN: 549.7 CPM/mg of tissue
[1]; 96 h
  Recovery from BRAIN: 2.0 ± 0.4 CPM/mg of tissue
  Recovery from KIDNEY: 61.6 ± 16.8 CPM/mg of tissue
  Recovery from LIVER: 831.9 ± 52.5 CPM/mg of tissue
  Recovery from LUNG: 52.1 ± 6.9 CPM/mg of tissue
  Recovery from MUSCLE: 15.8 ± 2.5 CPM/mg of tissue
  Recovery from SPLEEN: 413.0 ± 42.7 CPM/mg of tissue
[1]; at all times
  Amounts recovered from muscle: small amounts of phthalocyanine are recovered from muscle at all times
[1]; during the initial four days
  Elimination from liver and spleen: relatively slow elimination at least during the initial four days
[1]; i.v. in DPPC liposomes
  Amounts recovered from brain: minimal amounts
  Levels in kidneys: comparatively low levels observed in kidneys
  Recovery in the liver and spleen: very high in the liver and spleen
[1]; inferred from minimal brain recovery
  Toxic effects on the central nervous system: unlikely
[1]; main elimination via bile-gut pathway
  Amount cleared via the kidneys: only minor amounts cleared via the kidneys
[1]; mouse, in vivo
  Amount accumulated by liver and spleen: large amount accumulated by liver and spleen
[1]; short post-injection times
  Accumulation in the liver compared with ZnPc: greater accumulation
  Liver concentration relative to tumour: ca. 7 fold
MS-2 fibrosarcoma; 0.096 MBq/g in DPPC liposomes, FIG. 2
  Time of maximum tumour-to-muscle concentration ratio: 15 h
MS-2 fibrosarcoma; 0.096 MBq/g in DPPC liposomes, after 15 hours, FIG. 2
  Tumour-to-muscle concentration ratio over the studied time interval: remains at an essentially constant level throughout the studied time interval
MS-2 fibrosarcoma; 3 h, 0.096 MBq/g in DPPC liposomes
  Recovery from TUMOUR: 140.3 ± 38.6 CPM/mg of tissue
MS-2 fibrosarcoma; 15 h, 0.096 MBq/g in DPPC liposomes
  Recovery from TUMOUR: 182.7 ± 16.0 CPM/mg of tissue
MS-2 fibrosarcoma; 24 h, 0.096 MBq/g in DPPC liposomes
  Recovery from TUMOUR: 212.9 ± 8.6 CPM/mg of tissue
MS-2 fibrosarcoma; 24 hours after administration, 0.024 to 0.096 MBq/g, FIG. 3
  Effect of injected dose on tumour/muscle ratio: affected to a minor extent by the injected dose
MS-2 fibrosarcoma; 48 h, 0.096 MBq/g in DPPC liposomes
  Recovery from TUMOUR: 180.7 CPM/mg of tissue
MS-2 fibrosarcoma; 96 h, 0.096 MBq/g in DPPC liposomes
  Recovery from TUMOUR: 162.2 ± 19.5 CPM/mg of tissue
MS-2 fibrosarcoma; ^131 I label
  Tumour localization: efficient and selective tumour localizer
MS-2 fibrosarcoma; after ca.
  Time of maximal tumour concentration: ca. 24 hours
MS-2 fibrosarcoma; compared with several normal tissues
  Rate of uptake by the tumour: relatively low rate of uptake by the tumour as compared with several normal tissues
MS-2 fibrosarcoma; [4]
  Time of maximum accumulation in tumour: 24 h
MS-2 fibrosarcoma
  Kinetics of tumour uptake and clearance, ^131 I--ZnPc versus ZnPc: quite similar
MS-2 fibrosarcoma; tumour/muscle ratios of phthalocyanine recovery
  Selectivity of tumour targeting (tumour/muscle ratio) compared with ZnPc: almost twice higher selectivity of tumour targeting
[2]; at all examined time intervals
  Localization of radioactivity in the whole animal: strictly localized at the level of liver and tumour with no general delocalization throughout the organism
[2]; inferred from whole-animal distribution
  Dissociation of ^131 I from the phthalocyanine in vivo: unlikely that ^131 I is dissociated from the phthalocyanine to any significant extent
[3]; [4]
  Clearance rate from serum: particularly fast during the initial 15 hours after administration
[3]; i.v. 0.096 MBq/g in DPPC liposomes, within 96 hours
  Elimination from mouse serum: almost completely eliminated from mouse serum within 96 hours
[3]; mouse, in vivo
  Clearance profile from the serum: apparently polyphasic clearance from the serum
[3]; within the initial 24 hours post-injection, almost
  Initial radioactivity disappearing from serum: ~80%
